# Tests used:
# [1] = tested on: antibodies to the polypeptides of the invention; assay: Follow-up of antibody titer (ELISA based on the polypeptide) and DAS score in treated RA patients; type: in vivo, human; details: for alteration in the DAS score due to treatment: severe rheumatoid arthritis (average DAS score of 4.9); for antibody titers, fraction of the starting value: patients with low disease activity (average DAS 2.8), in the course of 1-2 years, on average
# Description: Patients having low disease activity (average DAS score of 2.8) were identified by an ELISA based on the polypeptide of the invention (<300 U/ml on average). Correlating with the success of treatment (DAS score less than 1.5 after treatment) with sulfasalazine or cortisone, the antibody titers were reduced to, on average, ⅙ of the starting value in the course of 1-2 years.
# Patients suffering from severe rheumatoid arthritis (average DAS score of 4.9) had, on average, an antibody titer of >1000 U/ml. […] In parallel with the altered antibody titer, patients reported during anamnesis a substantially more positive overall evaluation of their subjective situation regarding the disease, i.e. the diagnostic agent of the invention is also suitable for quality control of the therapy of a severe rheumatoid arthritis.
# [2] = target: T1, antibody binding to mutated vimentin (Homo sapiens, UniProt P08670, A54Y/A67Y/G16R/G41R/G59R/G76R/P18T/P24T/P46T/P75T/R78S); assay: Blocking of antibody binding to mutated vimentin in vitro (ELISA, RA sera)
# T1 construct: His-tag; made in house; host or cells: E. coli
# T1 sequence (P08670 whole entry G16R/P18T/P24T/G41R/P46T/A54Y/G59R/A67Y/P75T/G76R/R78S): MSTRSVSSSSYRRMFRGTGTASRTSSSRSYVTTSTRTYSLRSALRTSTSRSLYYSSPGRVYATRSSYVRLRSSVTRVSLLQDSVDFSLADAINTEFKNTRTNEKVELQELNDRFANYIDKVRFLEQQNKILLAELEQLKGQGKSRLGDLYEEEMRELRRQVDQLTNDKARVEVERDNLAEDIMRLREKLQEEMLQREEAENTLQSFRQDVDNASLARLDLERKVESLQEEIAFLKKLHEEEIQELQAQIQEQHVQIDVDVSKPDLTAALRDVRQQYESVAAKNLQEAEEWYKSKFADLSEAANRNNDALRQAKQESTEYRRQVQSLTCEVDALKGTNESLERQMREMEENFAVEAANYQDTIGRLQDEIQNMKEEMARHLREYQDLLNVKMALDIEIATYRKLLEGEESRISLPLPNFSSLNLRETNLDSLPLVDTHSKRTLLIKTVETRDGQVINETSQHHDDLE
# Protocol: To prepare an extract from green tea, 5 g of any commercially available tea were covered with 10 ml of 80% DMSO and stirred overnight. The solution was centrifuged at 13 000 rpm for 10. min and defined as tea extract. In contrast to the above solid substances 1, 2 and 4-6, 10 μl/ml tea extract of this preparation were employed. Antibody binding in the presence and absence of substances was analyzed in an ELISA for which microtiter plates were prepared analogously to Example 2. Different sera of RA patients were used in dilutions of from 1:100 to 1:400. Blocking of antibody binding was induced by preincubating 100 μl of the diluted serum with the substances or tea solutions indicated for 10 min. Subsequently, the remaining crossreaction was analyzed by transferring the 100 μl of serum-substance mixture to the cavities of said microtiter plate. According to the procedure of a classical ELISA, the bound antibodies were detected by means of a HRP-conjugated anti-human IgG. FIG. 3 depicts by way of example the results obtained using patient serum No. 400725.
# [3] = Oral administration of freeze-dried tea extract to rats, plasma analysis by HPLC and GC/MS; type: in vivo
# Description: Therefore the tea extracts prepared by us (see Example 7) were freeze-dried and reconstituted with cocoa oil or salmon oil. After oral administration of an extract prepared from 5 g of green tea (5 g/kg of body weight) to rats, blood was taken every half hour and analyzed by means of HPLC and GC/MS.
# [4] = target: vimentin (Homo sapiens, UniProt P08670); details: Ermakova et al. 2005; cited from earlier work
# vimentin, sequence (P08670 whole entry, species assumed): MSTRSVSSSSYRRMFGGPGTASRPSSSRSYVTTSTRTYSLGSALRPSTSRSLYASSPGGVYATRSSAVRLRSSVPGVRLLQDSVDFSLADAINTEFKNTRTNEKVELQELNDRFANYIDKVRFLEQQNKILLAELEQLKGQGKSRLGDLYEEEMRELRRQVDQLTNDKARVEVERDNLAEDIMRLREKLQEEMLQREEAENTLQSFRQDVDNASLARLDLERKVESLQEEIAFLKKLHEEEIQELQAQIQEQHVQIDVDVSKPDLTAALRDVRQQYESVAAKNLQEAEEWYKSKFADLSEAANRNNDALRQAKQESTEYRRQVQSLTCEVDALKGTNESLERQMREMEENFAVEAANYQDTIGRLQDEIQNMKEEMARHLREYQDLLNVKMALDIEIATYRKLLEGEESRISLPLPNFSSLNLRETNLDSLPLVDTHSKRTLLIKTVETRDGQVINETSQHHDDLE
# [5] = extract from 5 g green tea (5 g/kg of body weight)
compound,measurement,setting,value
CN(Cc1cnc2nc(N)nc(N)c2n1)c1ccc(C(=O)N[C@@H](CCC(=O)O)C(=O)O)cc1 [methotrexate],alteration in the DAS score due to treatment,[1],no significant alteration
O=C(O)c1cc(/N=N/c2ccc(S(=O)(=O)Nc3ccccn3)cc2)ccc1O [sulfasalazine],"antibody titers, fraction of the starting value",[1],⅙
"Oc1cc(O)c2c(c1)O[C@H](c1ccc(O)c(O)c1)[C@H](O)C2 [EC, Epicatechin]",blocking of antibody binding,"[2]; competition experiments, maximum",≤ 10%
"O=C(O[C@@H]1Cc2c(O)cc(O)cc2O[C@@H]1c1cc(O)c(O)c(O)c1)c1cc(O)c(O)c(O)c1 [EGCG, Epigallocatechin gallate]",blocking of formation of autoimmune complexes of autoantibodies to mutated vimentin,[2],blocked in a concentration-dependent manner
same,blocking of antibody binding,[2]; concentration of 10-100 μg/ml,no more than 45%
same,maximum plasma concentration for EGCG (content of 50% in the extract),[3]; [5],about 245 μg/ml
same,maximum plasma concentration of EC and EGCG (5-13% of the extract mass),[3]; [5],75 µg/mL
same,time of maximum plasma concentration after intake,[3]; extract from 5 g green tea (5 g/kg of body weight) in cocoa oil or salmon oil,About 2 hours
same,binding to vimentin,[4],binds to vimentin
Remicade: marketed drug used to treat severe rheumatoid arthritis,alteration in the DAS score due to treatment,[1],no significant alteration
C[C@]12CCC(=O)C=C1CC[C@@H]1[C@@H]2C(=O)C[C@@]2(C)[C@H]1CC[C@]2(O)C(=O)CO [cortisone],"antibody titers, fraction of the starting value",[1],⅙

# From patent US8999921B2, “Process for diagnosing rheumatic diseases” (Cypress Bioscience, Inc., priority 2005, dated 2015)
